Reference: patent US10391095B2, “DNA-PK inhibitors” (Vertex Pharmaceuticals Incorporated, priority 2012, dated 2019)

Each molecule was assayed against DNA-PK (Homo sapiens, UniProt P78527) (assay: DNA-PK inhibition assay (radiometric, 33P-ATP)). Conditions: 100 μM ATP, competitive tight-binding fit.
Type: biochemical
Method in brief: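 Approx. 6 nM DNA-PK with 10 µg/mL sheared dsDNA, 0.8 mg/mL peptide substrate and 100 µM 33P-ATP in HEPES pH 7.5, 10 mM MgCl2; 45 min, phosphoric acid quench. Phosphopeptide captured on filter plates and counted by scintillation; Ki from a competitive tight-binding model fit.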

| Structure (SMILES) | Ki |
| --- | --- |
| C[C@H](CNc1cc(-c2ccc3ccncc3c2)ncn1)c1ccnc2c1OCCO2 [Compound 541] | < 0.03 µM |
| CNC(=O)c1c(F)cnc2c([C@H](C)CNc3cc(-c4ccc(C(C)C)nc4)ncn3)cccc12 [Compound 858] | < 0.03 µM |
| CCOc1ncc(-c2cc(NC[C@@H](C)c3cccc4c(C(=O)NC)ccnc34)ncn2)cn1 [Compound 607] | < 0.03 µM |
| CNC(=O)c1ccnc2c([C@H](C)CNc3cc(-c4ccc(N5CCN(C(C)=O)CC5)nc4)ncn3)cccc12 [Compound 614] | < 0.03 µM |
| CCc1ncc(-c2cc(NC[C@@H](C)c3ccc(F)c4c(C(=O)NC)ccnc34)ncn2)cn1 [Compound 830] | < 0.03 µM |
| CNC(=O)c1ccnc2c([C@H](C)CNc3cc(-c4ccc(NCCc5ccc(C)o5)nc4)ncn3)cccc12 [Compound 738] | < 0.03 µM |
| COCCn1ncc2cc(-c3cc(NC[C@@H](C)c4ccccc4OC)ncn3)cnc21 [Compound 139] | < 0.03 µM |
| CNC(=O)c1ccnc2c([C@H](C)CNc3cc(-c4ccc(C(O)C(C)C)nc4)ncn3)cccc12 (stereo partly shown) [Compound 925] | < 0.03 µM |
| CNC(=O)c1ccnc2c([C@H](C)CNc3cc(-c4ccc(C)nc4)ncn3)cc(F)c(F)c12 [Compound 638] | < 0.03 µM |
| COc1cc(N)ncc1C(C)CNc1cc(-c2ccc(N3CCN(C(C)=O)CC3)nc2)ncn1 (stereo not shown) [Compound 345] | < 0.03 µM |
| Cc1ccc(-c2cc(NCC(C)c3ccccc3OCC3CCCO3)ncn2)cn1 (stereo not shown) [Compound 195] | < 0.03 µM |
| CNC(=O)c1ccc(C(C)CNc2cc(-c3cnc4c(cnn4C4CCN(C)CC4)c3)ncn2)c(OC)c1 (stereo not shown) [Compound 155] | < 0.03 µM |
| CCOC(=O)c1cn2c(n1)CN(c1cc(NC[C@@H](C)c3cccc4c(C(=O)NC)ccnc34)ncn1)CC2 [Compound 794] | < 0.03 µM |
| CNC(=O)c1ccnc2c([C@H](C)CNc3cc(-c4ccc(C)nc4)ncn3)ccc(F)c12 [Compound 515] | < 0.03 µM |
| CCOc1cc(F)ccc1C(C)CNc1cc(-c2ccc(C)nc2)ncn1 (stereo not shown) [Compound 100] | < 0.03 µM |
| CNC(=O)c1ccnc2c([C@H](C)CNc3cc(-c4ccc(OC(C)(C)C)cc4)ncn3)cccc12 [Compound 755] | < 0.03 µM |
| CNC(=O)c1ccnc2c([C@H](C)CNc3cc(-c4ccc(NCC(=O)N(C)C)nc4)ncn3)cccc12 [Compound 633] | < 0.03 µM |
| CCOc1ccccc1CCNc1cc(-c2ccc(C)nc2)ncn1 [Compound 57] | < 0.03 µM |
| CCc1cc(-c2cc(NC[C@@H](C)c3cccc4c(C(=O)NC)ccnc34)ncn2)cc(CC)n1 [Compound 953] | < 0.03 µM |
| Cc1ccc(-c2cc(NCC(C)c3cnccc3OC3CC3)ncn2)cn1 (stereo not shown) [Compound 165] | < 0.03 µM |
| CNC(=O)c1ccc(C(C)CNc2cc(-c3cnc4c(cnn4CCOC)c3)ncn2)c(OC)c1 (stereo not shown) [Compound 154] | < 0.03 µM |
| C[C@H](CNc1cc(-c2ccc(N3CCN(C)CC3)nc2)ncn1)c1ccccc1OC1CC1 [Compound 114] | < 0.03 µM |
| CCNc1ncc(-c2cc(NC[C@@H](C)c3ccc(F)c4c(C(=O)NC)ccnc34)ncn2)cn1 [Compound 931] | < 0.03 µM |
| COc1ccccc1[C@H](C)CNc1cc(-c2cnc3c(cnn3C3CCN(C)CC3)c2)ncn1 [Compound 83] | < 0.03 µM |
| CNC(=O)c1ccnc2c([C@H](C)CNc3cc(-c4ccc(C5CC5)nc4)ncn3)ccc(F)c12 [Compound 852] | < 0.03 µM |

| Structure (SMILES) | Ki |
| --- | --- |
| CCNc1ccc(-c2cc(NC[C@@H](C)c3ccc(F)c4c(C(=O)NC)ccnc34)ncn2)cn1 [Compound 922] | < 0.03 µM |
| CNC(=O)c1ccc(C(C)CNc2cc(-c3ccc(CCOC)cc3)ncn2)c(OC)c1 (stereo not shown) [Compound 340] | < 0.03 µM |
| CNC(=O)c1ccc(C(C)CNc2cc(-c3ccc4c(cnn4CCO)c3C)ncn2)c(OC)c1 (stereo not shown) [Compound 277] | < 0.03 µM |
| CNC(=O)c1ccnc2c([C@H](C)CNc3cc(-c4ccc(NC5CC5)nc4)ncn3)ccc(F)c12 [Compound 943] | < 0.03 µM |
| CC(CNc1cc(-c2cnc3c(cnn3C3CCN(C)CC3)c2)ncn1)c1cccc2cccnc12 (stereo not shown) [Compound 237] | < 0.03 µM |
| CNC(=O)c1ccnc2c([C@H](C)CNc3cc(-c4cnc(N5CCN(CC(F)F)CC5)nc4)ncn3)cccc12 [Compound 757] | < 0.03 µM |
| CNC(=O)c1ccnc2c([C@H](C)CNc3cc(-c4ccnc(CO)c4)ncn3)cccc12 [Compound 890] | < 0.03 µM |
| CNC(=O)c1ccc([C@H](C)CNc2cc(-c3ccc4c(c3)NC(=O)C4)ncn2)c(OC)c1 [Compound 311] | < 0.03 µM |
| CNC(=O)c1ccnc2c([C@H](C)CNc3cc(-c4cncc(-c5nnco5)c4)ncn3)cccc12 [Compound 960] | < 0.03 µM |
| CC(CNc1cc(-c2ccc(N3CCN(C)CC3)nc2)ncn1)c1ccccc1OC1COC1 (stereo not shown) [Compound 102] | < 0.03 µM |
| CNC(=O)c1ccnc2c([C@H](C)CNc3cc(-c4ccc(C#N)cc4)ncn3)cccc12 [Compound 683] | < 0.03 µM |
| CNC(=O)c1c(F)cnc2c([C@H](C)CNc3cc(-c4ccc(C#N)nc4)ncn3)cccc12 [Compound 901] | < 0.03 µM |
| CNC(=O)c1ccnc2c([C@H](C)CNc3cc(-c4ccc(N5Cc6ccncc6C5)nc4)ncn3)cccc12 [Compound 718] | < 0.03 µM |
| CNC(=O)c1ccnc2c([C@H](C)CNc3cc(-c4ccc(C#N)nc4)ncn3)cccc12 [Compound 613] | < 0.03 µM |
| COc1ccccc1[C@H](C)CNc1cc(-c2ccnc(Nc3nn[nH]n3)c2)ncn1 [Compound 211] | < 0.03 µM |
| CNC(=O)c1ccnc2c([C@H](C)CNc3cc(-c4ccc(C)s4)ncn3)cccc12 [Compound 839] | < 0.03 µM |
| [2H]c1nc(NC[C@@H](C)c2cccc3c(C(=O)NC)ccnc23)cc(-c2ccc(C)nc2)n1 [Compound 604] | < 0.03 µM |
| CNC(=O)c1ccnc2c([C@H](C)CNc3cc(-c4ccc5c(c4)CN(C(C)=O)CC5)ncn3)cccc12 [Compound 804] | < 0.03 µM |
| CNC(=O)c1ccc(-c2cc(NC[C@@H](C)c3cccc4c(C(=O)NC)ccnc34)ncn2)cc1F [Compound 807] | < 0.03 µM |
| CNC(=O)c1ccc([C@H](C)CNc2cc(-c3ccc(C(=O)N4CCN(C)CC4)cc3)ncn2)c(OC)c1 [Compound 309] | < 0.03 µM |
| CNC(=O)c1ccc([C@H](C)CNc2cc(-c3ccc(N4CC=CCC4)nc3)ncn2)c(OC)c1 [Compound 366] | < 0.03 µM |
| CNC(=O)c1ccnc2c([C@H](C)CNc3cc(-c4ccn(C)c(=O)c4)ncn3)cccc12 [Compound 656] | < 0.03 µM |
| C[C@H](CNc1cc(-c2cnc(F)c(N)c2)ncn1)c1ccnc2c1OCCO2 [Compound 554] | < 0.03 µM |
| Cc1ccc(-c2cc(NCC(C)c3cncc4c3OCCC4)ncn2)cn1 (stereo not shown) [Compound 451] | < 0.03 µM |
| CNC(=O)c1ncnc2c([C@H](C)CNc3cc(-c4ccc(C)nc4)ncn3)cccc12 [Compound 971, (S)—N-methyl-8-(1-((6-(6-methylpyridin-3-yl)pyrimidin-4-yl)amino)propan-2-yl)quinazoline-4-carboxamide] | < 0.03 µM |

Now from value to molecule:

| Ki | Structure (SMILES) |
| --- | --- |
| < 0.03 µM | [2H]C([2H])([2H])NC(=O)c1ccnc2c([C@H](C)CNc3cc(-c4ccc(C)nc4)ncn3)cccc12 [Compound 549] |
| < 0.03 µM | CNC(=O)c1ccc([C@H](C)CNc2cc(-c3ccc(N(C)CCO)nc3)ncn2)c(OC)c1 [Compound 365] |
| < 0.03 µM | CNC(=O)c1ccnc2c([C@H](C)CNc3cc(-c4ccc(NC(C)=O)cc4)ncn3)cccc12 [Compound 749] |
| < 0.03 µM | CNC(=O)c1ccc([C@H](C)CNc2cc(-c3cnc4c(ccn4CC4CC4)c3)ncn2)c(OC)c1 [Compound 253] |
| < 0.03 µM | CNC(=O)c1ccc(C(C)CNc2cc(-c3cnc4c(cnn4C(C)(C)C(=O)O)c3)ncn2)c(OC)c1 (stereo not shown) [Compound 284] |
| < 0.03 µM | CNC(=O)c1ccnc2c([C@H](C)CNc3cc(-c4cnc(C(C)C)nc4)ncn3)ccc(F)c12 [Compound 854] |
| < 0.03 µM | C[C@H](CNc1cc(-c2cnc3c(cnn3CCO)c2)ncn1)c1ccnc2cccnc12 [Compound 472] |
| < 0.03 µM | C[C@H](CNc1cc(-c2cnc3c(cnn3C3CNC3)c2)ncn1)c1ccnc2c1OCCO2 [Compound 527] |
| < 0.03 µM | CNC(=O)c1ccnc2c([C@H](C)CNc3cc(-c4ccc5c(c4)CCNC5)ncn3)cccc12 [Compound 802] |
| < 0.03 µM | CNC(=O)c1ccnc2c([C@H](C)CNc3cc(-c4cnc(C)c(F)c4)ncn3)ccc(F)c12 [Compound 974] |
| < 0.03 µM | COc1ccccc1[C@H](C)CNc1cc(-c2cnc3c(cnn3C3COC3)c2)ncn1 [Compound 179] |
| < 0.03 µM | CNC(=O)c1ccnc2c([C@H](C)CNc3cc(-c4cnc(C(C)(C)O)c(F)c4)ncn3)cccc12 [Compound 822] |
| < 0.03 µM | C[C@H](CNc1cc(-c2ccc(N3CCN(C)CC3)nc2)ncn1)c1cccc2c1OCC2 [Compound 132] |
| < 0.03 µM | COc1ccccc1[C@H](C)CNc1cc(-c2cnc3c(cnn3CC3CC3)c2)ncn1 [Compound 140] |
| < 0.03 µM | CCOc1cc(F)ccc1[C@H](C)CNc1cc(-c2ccc(C)nc2)ncn1 [Compound 103] |
| < 0.03 µM | Cc1ccc(-c2cc(NCC(C)c3cncc4cccnc34)ncn2)cn1 (stereo not shown) [Compound 414] |
| < 0.03 µM | COc1ccccc1[C@H](C)CNc1cc(-c2ccnc(NCC(O)CO)c2)ncn1 (single isomer, unassigned) [Compound 208] |
| < 0.03 µM | CNC(=O)c1ccnc2c([C@H](C)CNc3cc(-c4ccc(NCC5CC5)nc4)ncn3)cccc12 [Compound 644] |
| < 0.03 µM | CNC(=O)c1ccnc2c([C@H](C)CNc3cc(-c4ccc(C(=O)NCCO)cc4)ncn3)cccc12 [Compound 753] |
| < 0.03 µM | CNC(=O)c1ccnc2c([C@H](C)CNc3cc(-c4cnc(C5CCOCC5)nc4)ncn3)cccc12 [Compound 831] |
| < 0.03 µM | Cc1ncc(-c2cc(NC[C@@H](C)c3cccc4c(C(F)F)c(F)cnc34)ncn2)cn1 [Compound 813] |
| < 0.03 µM | CNC(=O)c1ccnc2c([C@H](C)CNc3cc(-c4cnc5c(c4)COC5)ncn3)cccc12 [Compound 952] |
| < 0.03 µM | CNC(=O)c1ccc([C@H](C)CNc2cc(-c3ccc(N4CCCC4)nc3)ncn2)c(OC)c1 [Compound 363] |
